{
  "source": "patent US7807854B2",
  "about": "“Effective use method of medicaments and method of preventing expression of side effect” (priority 2004, dated 2010)",
  "assay_type_in_all_cases": "in vivo",
  "key": {"adjuvant arthritis": {"tested_on": "adjuvant arthritis", "test": "Rat adjuvant arthritis (AA) model, hind limb volume increase", "conditions": "for Inhibition of adjuvant arthritis (hind limb volume increase): oral once daily, Day 21", "description": "In a footpad of right hind limb of 6 or 7-week-old female LEW/Crj rat (Charles River Japan, Inc.), 0.05 mL (0.6 mg/animal) of killed M. butyricum (12 mg/mL) suspended in liquid paraffin was intradermally injected to cause arthritis (Day 0). Test compound was dissolved or suspended in pure water and orally administered in a volume of 0.5 mL per 100 g of body weight of rat. Adjuvant control was received only pure water. As for the combinational administration group, an aqueous solution of KNF-299 and an aqueous solution of MTX(Sigma) were administered after being mixed before administration. Administration was conducted once a day everyday from Day 0 to end of the experiment. Evaluation of arthritis was made by measuring volumes of left and right hind limbs by using a volume meter (MK-550, Muromachi Kikai) at Day 0, 3, 8, 14, 17, and 21, and determining an increase relative to hind limb at Day 0."}, "transplanted heart": {"tested_on": "transplanted heart", "test": "Prolonging effect on heart graft survival between MHC-incompatible rat strains (DA donor, LEW recipient)", "description": "Effect of KNF-299 was examined in allogeneic heart transplantation between MHC-incompatible rats. Using combination of DA (RT1^a) rat as a donor, and LEW (RT1^l) rat as a recipient, heterotopic heart transplantation in which heart of donor is joined to neck vessel of recipient with a cuff was conducted with reference to a literature (Microsurgery; 21, 16-21, 2001) or the like.\nDrug was administered orally once a day everyday from the day of heart transplantation. MPA was prepared from the product purchased from Wako Pure Chemical Industries, Ltd. so that the concentration was 20 mg/mL in a saline containing 0.5% carboxymethyl cellulose, 0.4% Tween 80, and 0.9% benzyl alcohol, and administered in 0.1 mL/100 g B.W.\nKNF-299 was dissolved in distilled water in a concentration of 0.06 mg/mL, and administered in 0.5 mL/100 g B.W. A control group was received a vehicle used for MPA administration liquid.\nCardiac pulsation of the transplanted heart was checked by inspection or palpation, and determination of rejection was made when cardiac pulsation stopped. Number of days from transplantation to determination of rejection was defined as survival time. Mean value of survival time in each group was calculated as mean survival time (MST)."}, "skin allograft": {"tested_on": "skin allograft", "test": "Prolonging effect on skin allograft survival between MHC-compatible rat strains (LEW donor, F344 recipient)", "description": "Five animals were included per group, and all rats were bread in separate cages. LEW(RT1^l) was selected as donor, and F344(RT1^lvl) was selected as recipient. A part of dermis (1.8×1.8 cm) on the back of recipient was excised, and after giving several drops of penicillin solution (40,000 U/mL, in saline) thereon, a full thickness skin graft (1.8×1.8 cm) prepared from abdominal part of donor was put thereon. First-aid adhesive tape (30×72 mm) was applied so that the center pad thereof lies on the graft, and secured by binding aeration tape (adhesive bandage, 3.8×15 cm) therearound. At 5 days, the first-aid adhesive tape and the aeration tape were removed by cutting with scissors.\nDrug administration was conducted by orally administering 0.5 mL/100 g B.W. of drug once a day everyday from the day of skin transplantation. Control group was received distilled water. As the CsA, Sandimmun injection (50 mg/mL) diluted in distilled water was administered. As the FK506, the filling of Prograf capsule (Fujisawa Pharmaceutical Co., Ltd.) suspended in distilled water was administered. […] A combinational administration group was received a mixture prepared by mixing liquids to be administered right before administration.\nGrafts were observed everyday from fifth day of transplantation at which the first-aid adhesive tape was removed, and the condition that 90% or more of graft epithelium necrotized to turn brown was determined as occurrence of rejection. Number of days from transplantation to determination of rejection was defined as a survival time.\nMean value of survival times for each group was calculated as a mean survival time (MST). In each group (n=5), the third-longest survival time was defined as a median value."}, "[1]": {"conditions": "KNF-299 0.03 mg/kg oral once daily, Test 2"}, "[2]": {"conditions": "KNF-299 0.1 mg/kg oral once daily, third test (headed Test 2)"}, "[3]": {"conditions": "FK506 3 mg/kg oral once daily, third test (headed Test 2)"}},
  "data": [
    {"compound": "CN(Cc1cnc2nc(N)nc(N)c2n1)c1ccc(C(=O)N[C@@H](CCC(=O)O)C(=O)O)cc1", "note": "[MTX, methotrexate]", "values": [
      {"measurement": "Inhibition of adjuvant arthritis (hind limb volume increase)", "setting": "adjuvant arthritis; MTX 0.025 mg/kg alone, not significant", "result": 20, "unit": "%"},
      {"measurement": "Ability to prevent onset of adjuvant arthritis", "setting": "adjuvant arthritis; MTX 0.03 mg/kg oral once daily, FIG. 2", "result": "not observed"},
      {"measurement": "Inhibition of adjuvant arthritis (hind limb volume increase)", "setting": "adjuvant arthritis; MTX 0.05 mg/kg alone, not significant", "result": 35, "unit": "%"},
      {"measurement": "Ability to prevent onset of adjuvant arthritis", "setting": "adjuvant arthritis; MTX 0.1 mg/kg oral once daily, FIG. 2", "result": "reached maximum"}
    ]},
    {"compound": "NC(CO)(CO)CCc1ccc(Sc2cccc(OCc3ccccc3)c2)cc1Cl", "note": "[KNF-299, 2-amino-2-[4-(3-benzyloxyphenylthio)-2-chlorophenyl]ethyl-1,3-propanediol]", "values": [
      {"measurement": "Inhibition of adjuvant arthritis (hind limb volume increase)", "setting": "adjuvant arthritis; KNF-299 0.01 mg/kg alone", "result": 36, "unit": "%"},
      {"measurement": "Ability to prevent onset of adjuvant arthritis", "setting": "adjuvant arthritis; KNF-299 0.1 mg/kg p.o. once daily, FIG. 1", "result": "reaches almost maximum"},
      {"measurement": "Survival time (day) of transplanted heart, MST", "setting": "transplanted heart; KNF-299 0.3 mg/kg oral once daily", "result": 7.0, "unit": "days"},
      {"measurement": "Prolonging effect on heart graft mean survival time compared to control group", "setting": "transplanted heart; KNF-299 0.3 mg/kg single administration", "result": 1.2, "unit": "days"},
      {"measurement": "Survival time (day) of skin graft, MST", "setting": "skin allograft; [1]", "result": 9.0, "unit": "days"},
      {"measurement": "Survival time (day) of skin graft, Median", "setting": "skin allograft; [1]", "result": 9.0, "unit": "days"},
      {"measurement": "Survival time (day) of skin graft, MST", "setting": "skin allograft; [2]", "result": 8.8, "unit": "days"},
      {"measurement": "Survival time (day) of skin graft, Median", "setting": "skin allograft; [2]", "result": 9.0, "unit": "days"},
      {"measurement": "Survival time (day) of skin graft, Median", "setting": "skin allograft; KNF-299 3 mg/kg oral once daily, Test 1", "result": ">30", "unit": "days"},
      {"measurement": "Effect on skin graft survival (in words)", "setting": "skin allograft; KNF-299 3 mg/kg single administration", "result": "clear prolonging effect"}
    ]},
    {"compound": "COc1c(C)c2c(c(O)c1C/C=C(\\C)CCC(=O)O)C(=O)OC2", "note": "[MPA, mycophenolic acid, reference compound]", "values": [
      {"measurement": "Survival time (day) of transplanted heart, MST", "setting": "transplanted heart; MPA 20 mg/kg oral once daily", "result": ">54.4", "unit": "days"},
      {"measurement": "Rejection preventing effect on transplanted heart (in words)", "setting": "transplanted heart; MPA 20 mg/kg single administration", "result": "insufficient"}
    ]},
    {"compound": "C=CC[C@@H]1/C=C(\\C)C[C@H](C)C[C@H](OC)[C@H]2O[C@@](O)(C(=O)C(=O)N3CCCC[C@H]3C(=O)O[C@H](/C(C)=C/[C@@H]3CC[C@@H](O)[C@H](OC)C3)[C@H](C)[C@@H](O)CC1=O)[C@H](C)C[C@@H]2OC", "note": "[FK506, tacrolimus, reference compound]", "values": [
      {"measurement": "Survival time (day) of skin graft, MST", "setting": "skin allograft; [3]", "result": 9.2, "unit": "days"},
      {"measurement": "Survival time (day) of skin graft, Median", "setting": "skin allograft; [3]", "result": 9.0, "unit": "days"}
    ]}
  ]
}
